From US8951508B2, “Compound” (DSM IP Assets B.V., priority 2009, dated 2015)

Assays:
[1] = Comparative solubility of BMDBM in 1:1 C12-15 alkyl benzoate/UV-filter mixtures, HPLC of supernatant after 1 month at RT; conditions: for effect on solubility of BMDBM in C12-15 alkyl benzoate: conclusion in words
Method: The solubility of BMDBM in a 1:1 (w/w) mixture of C12-15 alkyl benzoate and a polymeric, respectively a solid UV-filter (i.e. Polysilicone-15 (P-15), HY-B1, HY-B2, HY-AB, BEMT or Ethylhexyltriazone (EHT)) was determined by mixing 200 mg of BMDBM with 1000 mg of the 1:1 mixture and measuring the BMDBM concentration of the supernatant by HPLC after a storage period of 1 month at RT. Where necessary the mixture was centrifuged in order to obtain a clear supernatant.

[2] = Reduction of solvent necessary to dissolve solid UV-filter; format: physicochemical
[3] = e.g. C12-15 alkyl benzoate or diisopropyl sebaceate; typical value; cited from earlier work

| SMILES | effect on solubility of BMDBM in C12-15 alkyl benzoate [1] | Solubility of BMDBM in C12-15 alkyl benzoate/UV-filter 1:1 ([1]; 200 mg BMDBM in 1000 mg 1:1 mixture, 1 month at RT, label = UV-filter in mixture) | Solubility of BMDBM: Δ solubility ([1]; 1:1 mixture versus C12-15 alkyl benzoate, label = UV-filter in mixture) | Solubility of BMDBM: Δ solubility related to cosmetic solvent ([1]; label = UV-filter in mixture) | amount of 1:1 (w/w) mixture of PG-UVB1 and diisopropyl sebacate needed to dissolve 0.5 g BMDBM [2] | amount of 1:1 (w/w) mixture of PG-UVB2 and C12-15 alkyl benzoate necessary to dissolve 0.5 g BMDBM [2] | amount of C12-15 alkyl benzoate necessary to solubilize 0.5 g BMDBM [2] | amount of diisopropyl sebacate necessary to solubilize 0.5 g BMDBM [2] | reduction of the cosmetic solvent necessary to dissolve BMDBM ([2]; 1:1 (w/w) PG-UVB1/diisopropyl sebacate versus diisopropyl sebacate) | reduction of the cosmetic solvent necessary to dissolve BMDBM ([2]; 1:1 (w/w) PG-UVB2/C12-15 alkyl benzoate versus C12-15 alkyl benzoate) | Solubility of BMDBM in C12-15 alkyl benzoate ([1]; reference value without UV-filter, repeated per column) | solubility in the conventional cosmetic oils [3] |
| --- | --- | --- | --- | --- | --- | --- | --- | --- | --- | --- | --- | --- |
| CCCCC(CC)COC(=O)c1ccc(Nc2nc(Nc3ccc(C(=O)OCC(CC)CCCC)cc3)nc(Nc3ccc(C(=O)OCC(CC)CCCC)cc3)n2)cc1 (stereo not shown) [EHT, Ethylhexyltriazone] | neither be enhanced | – | – | – | – | – | – | – | – | – | – | – |
| CCCCC(CC)COc1ccc(-c2nc(-c3ccc(OC)cc3)nc(-c3ccc(OCC(CC)CCCC)cc3O)n2)c(O)c1 (stereo not shown) [BEMT, bis-ethylhexyloxyphenol methoxyphenyl triazine] | neither be enhanced | 3 wt.-% | −11 wt.-% | −4 wt.-% | – | – | – | – | – | – | – | – |
| COc1ccc(C(=O)CC(=O)c2ccc(C(C)(C)C)cc2)cc1 [BMDBM, butyl methoxydibenzoylmethane] | – | – | – | – | 1.4 g | 1.5 g | 3.0 g | 2.0 g | 65% | 75% | 14 wt.-% | less than 20% |
